Data as given in PubChem BioAssay AID1963869 (Molecular Pharmacology Branch, DTP, NCI, 2024).

Test system: KRAS patient-derived spheroids with HUVEC/MSC, viability
Assay: Anticancer human tumor 323965-272-R-J2-PDC patient-derived pancreatic carcinoma cell line growth inhibition [KRAS2]
Details: for IC50: curve of first compound; for viability, T/C: stronger effect = lower value
Method in brief: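 KRAS-mutant tumor cells were grown as spheroids with HUVEC endothelial cells and human MSCs as stroma. Targeted agents were tested alone and with KRAS pathway inhibitors. Doses started at or near clinical Cmax, or 10 microM, descending half-log.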

[1] = second compound 0.1 µM, first compound 0.0316 µM
[2] = second compound 0.1 µM, first compound 0.1 µM
[3] = second compound 0.1 µM, first compound 0.316 µM
[4] = second compound 0.1 µM, first compound 1 µM
[5] = second compound 0.1 µM, first compound 3.16 µM
[6] = second compound 0.1 µM, first compound 10 µM
[7] = second compound 0.316 µM, first compound 0.0316 µM
[8] = second compound 0.316 µM, first compound 0.1 µM
[9] = second compound 0.316 µM, first compound 0.316 µM
[10] = second compound 0.316 µM, first compound 1 µM
[11] = second compound 0.316 µM, first compound 3.16 µM
[12] = second compound 0.316 µM, first compound 10 µM
[13] = second compound 1 µM, first compound 0.0316 µM
[14] = second compound 1 µM, first compound 0.1 µM
[15] = second compound 1 µM, first compound 0.316 µM
[16] = second compound 1 µM, first compound 1 µM
[17] = second compound 1 µM, first compound 3.16 µM
[18] = second compound 1 µM, first compound 10 µM
[19] = second compound 3.16 µM, first compound 0.0316 µM
[20] = second compound 3.16 µM, first compound 0.1 µM
[21] = second compound 3.16 µM, first compound 0.316 µM
[22] = second compound 3.16 µM, first compound 1 µM
[23] = second compound 3.16 µM, first compound 3.16 µM
[24] = second compound 3.16 µM, first compound 10 µM
[25] = second compound 10 µM, first compound 0.0316 µM
[26] = second compound 10 µM, first compound 0.1 µM
[27] = second compound 10 µM, first compound 0.316 µM
[28] = second compound 10 µM, first compound 1 µM
[29] = second compound 10 µM, first compound 3.16 µM
[30] = second compound 10 µM, first compound 10 µM
[31] = second compound 0.1 µM, first compound 0.000316 µM
[32] = second compound 0.1 µM, first compound 0.001 µM
[33] = second compound 0.1 µM, first compound 0.00316 µM
[34] = second compound 0.1 µM, first compound 0.01 µM
[35] = second compound 0.316 µM, first compound 0.000316 µM
[36] = second compound 0.316 µM, first compound 0.001 µM
[37] = second compound 0.316 µM, first compound 0.00316 µM
[38] = second compound 0.316 µM, first compound 0.01 µM
[39] = second compound 1 µM, first compound 0.000316 µM
[40] = second compound 1 µM, first compound 0.001 µM
[41] = second compound 1 µM, first compound 0.00316 µM
[42] = second compound 1 µM, first compound 0.01 µM
[43] = second compound 3.16 µM, first compound 0.000316 µM
[44] = second compound 3.16 µM, first compound 0.001 µM
[45] = second compound 3.16 µM, first compound 0.00316 µM
[46] = second compound 3.16 µM, first compound 0.01 µM
[47] = second compound 10 µM, first compound 0.000316 µM
[48] = second compound 10 µM, first compound 0.001 µM
[49] = second compound 10 µM, first compound 0.00316 µM
[50] = second compound 10 µM, first compound 0.01 µM
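Also: spheroids exposed to agents for 7 days.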
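For viability, T/C in this document: 100% = DMSO vehicle control viability.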

| Structure (SMILES) | IC50 (second compound 0.1 µM) [nM] | IC50 (second compound 0.316 µM) [nM] | IC50 (second compound 1 µM) [nM] | IC50 (second compound 3.16 µM) [nM] | IC50 (second compound 10 µM) [nM] | viability, T/C [1] [%] | viability, T/C [2] [%] | viability, T/C [3] [%] | viability, T/C [4] [%] | viability, T/C [5] [%] | viability, T/C [6] [%] | viability, T/C [7] [%] | viability, T/C [8] [%] | viability, T/C [9] [%] | viability, T/C [13] [%] | viability, T/C [14] [%] | viability, T/C [19] [%] | viability, T/C [20] [%] | viability, T/C [25] [%] | viability, T/C [26] [%] | other results |
| --- | --- | --- | --- | --- | --- | --- | --- | --- | --- | --- | --- | --- | --- | --- | --- | --- | --- | --- | --- | --- | --- |
| CC(C)NCC(C(=O)N1CCN(c2ncnc3c2C(C)CC3O)CC1)c1ccc(Cl)cc1 (stereo not given) + CC1OCC2(CCN(c3cnc(Sc4ccnc(N)c4Cl)c(N)n3)CC2)C1N | 732 | 143 | < 31.6 | < 31.6 | < 31.6 | 84.6 | 72.5 | 57.6 | 44.9 | 42.1 | 32.4 | 60.2 | 54.2 | 40.8 | 38.5 | 35.3 | 24.8 | 20.3 | 20.8 | 19.1 | viability, T/C [10]: 29%; viability, T/C [11]: 27.9%; viability, T/C [12]: 23.6%; viability, T/C [15]: 21.5%; viability, T/C [16]: 12.7%; viability, T/C [17]: 12.6%; viability, T/C [18]: 10.4%; viability, T/C [21]: 12.6%; viability, T/C [22]: 7.8%; viability, T/C [23]: 5.77%; viability, T/C [24]: 3.98%; viability, T/C [27]: 11.5%; viability, T/C [28]: 6.63%; viability, T/C [29]: 4.73%; viability, T/C [30]: 2.87% |
| CC(C)n1nc(-c2ccc3oc(N)nc3c2)c2c(N)ncnc21 + CC1OCC2(CCN(c3cnc(Sc4ccnc(N)c4Cl)c(N)n3)CC2)C1N | 1.23 | < 0.316 | < 0.316 | < 0.316 | < 0.316 | 18.1 | 13.7 | – | – | – | – | 12.4 | 5.7 | – | 7.51 | 2.03 | 4.33 | 1.32 | 1.96 | 0.92 | viability, T/C [31]: 77%; viability, T/C [32]: 52.3%; viability, T/C [33]: 36.2%; viability, T/C [34]: 26.7%; viability, T/C [35]: 46.2%; viability, T/C [36]: 42.1%; viability, T/C [37]: 31.8%; viability, T/C [38]: 21%; viability, T/C [39]: 47.9%; viability, T/C [40]: 35.9%; viability, T/C [41]: 26.8%; viability, T/C [42]: 15.6%; viability, T/C [43]: 36.2%; viability, T/C [44]: 27%; viability, T/C [45]: 21.4%; viability, T/C [46]: 10.4%; viability, T/C [47]: 28.1%; viability, T/C [48]: 22.7%; viability, T/C [49]: 15.6%; viability, T/C [50]: 6.84% |
| CC1(C)CCC(CN2CCN(c3ccc(C(=O)NS(=O)(=O)c4ccc(NCC5CCOCC5)c([N+](=O)[O-])c4)c(Oc4cnc5[nH]ccc5c4)c3)CC2)=C(c2ccc(Cl)cc2)C1 + CC1OCC2(CCN(c3cnc(Sc4ccnc(N)c4Cl)c(N)n3)CC2)C1N | 1380 | 1070 | < 31.6 | < 31.6 | < 31.6 | 81.6 | 74.7 | 78 | 65.3 | 10.1 | 3.29 | 56.9 | 63.4 | 49.9 | 43.9 | 45.9 | 37.3 | 32.7 | 24.6 | 24.5 | viability, T/C [10]: 53%; viability, T/C [11]: 6.85%; viability, T/C [12]: 2.39%; viability, T/C [15]: 40.5%; viability, T/C [16]: 34%; viability, T/C [17]: 5.15%; viability, T/C [18]: 1.19%; viability, T/C [21]: 26.6%; viability, T/C [22]: 20.2%; viability, T/C [23]: 4.11%; viability, T/C [24]: 1.21%; viability, T/C [27]: 25.4%; viability, T/C [28]: 20.9%; viability, T/C [29]: 2.63%; viability, T/C [30]: 0.27% |
| Cn1ncnc1[C@H]1c2n[nH]c(=O)c3cc(F)cc(c23)N[C@@H]1c1ccc(F)cc1 + CC1OCC2(CCN(c3cnc(Sc4ccnc(N)c4Cl)c(N)n3)CC2)C1N | > 100 | 35.9 | < 0.316 | < 0.316 | < 0.316 | 76.2 | 62 | – | – | – | – | 51.2 | 45 | – | 42 | 38 | 24.4 | 21 | 18.7 | 17.2 | viability, T/C [31]: 80.9%; viability, T/C [32]: 82.9%; viability, T/C [33]: 82.9%; viability, T/C [34]: 79.7%; viability, T/C [35]: 57.5%; viability, T/C [36]: 62.5%; viability, T/C [37]: 55.2%; viability, T/C [38]: 53.6%; viability, T/C [39]: 44%; viability, T/C [40]: 47.5%; viability, T/C [41]: 45.7%; viability, T/C [42]: 43.7%; viability, T/C [43]: 34.4%; viability, T/C [44]: 32%; viability, T/C [45]: 30.1%; viability, T/C [46]: 28.2%; viability, T/C [47]: 29.3%; viability, T/C [48]: 23.2%; viability, T/C [49]: 20.8%; viability, T/C [50]: 20.1% |
